Converted amounts (≈) assume the structure as drawn. The source made the active and inactive calls. No cut-off for these calls is given here.
Experiments:
Escherichia coli [1] = experiment: Bactericidal activity against Escherichia coli AB1157 assessed as reduction in bacterial count at 8 times MIC measured after 24 hrs by time kill assay; assay type: functional
Staphylococcus aureus [2] = experiment: Antibacterial activity against vancomycin-intermediate Staphylococcus aureus incubated for 16 to 24 hrs by CLSI based broth microdilution method; assay type: functional; conditions: time 16-24 hrs
Escherichia coli [3] = experiment: Induction of inner membrane permeabilization in Escherichia coli AB1157 measured for 50 mins by PI staining based analysis; assay type: functional, organism-based; conditions: dose 1-128 µg/ml
Peptidoglycan [4] = experiment: Binding affinity to Ac-Lys(Ac)-D-Ala-D-Ala lipid II model peptide moiety assessed as association constant by ITC analysis
Acinetobacter baumannii = experiment: Potency index, ratio of Vancomycin MIC to test compound MIC for Carbapenem-resistant Acinetobacter baumannii clinical isolate incubated for 16 to 24 hrs by CLSI based broth microdilution method; assay type: functional; conditions: time 16-24 hrs
Escherichia coli [5] = experiment: Induction of cytoplasmic membrane depolarization in Escherichia coli AB1157 at 5 uM by DiSC3(5) staining based analysis; assay type: functional, organism-based
Peptidoglycan [6] = experiment: Binding affinity to Ac-Lys(D-isoAsp)-D-Ala-D-Ala lipid II model peptide moiety assessed as association constant by ITC analysis
Staphylococcus aureus [7] = experiment: Post-antibiotic effect in Staphylococcus aureus MRSA252 at 10 times measured after 7 hrs; assay type: functional, organism-based
Staphylococcus aureus [8] = experiment: Induction of membrane disruption in Staphylococcus aureus MRSA252 assessed as leakage of protoplasm content at 1 to 8 ug/ml incubated for 4 to 24 hrs by TEM analysis; assay type: functional, organism-based; conditions: dose 1-8 µg/ml, time 4-24 hrs
Escherichia coli [9] = experiment: Inhibition of peptidoglycan biosynthesis in Escherichia coli AB1157 assessed as increase in accumulation of Park's nucleotide at 16 ug/ml incubated for 2 hrs by RP-HPLC analysis; assay type: functional, organism-based; conditions: dose 16.0 µg/ml
Klebsiella pneumoniae = experiment: Antibacterial activity against Klebsiella pneumoniae clinical isolate incubated for 16 to 24 hrs by CLSI based broth microdilution method; assay type: functional; conditions: time 16-24 hrs
Enterococcus faecalis = experiment: Antibacterial activity against Enterococcus faecalis clinical isolate incubated for 16 to 24 hrs by CLSI based broth microdilution method; assay type: functional; conditions: time 16-24 hrs
Escherichia coli [10] = experiment: Potency index, ratio of Norvancomycin MIC to test compound MIC for Escherichia coli […] incubated for 16 to 24 hrs by CLSI based broth microdilution method; assay type: functional; conditions: time 16-24 hrs
Escherichia coli [11] = experiment: Bactericidal activity against Escherichia coli AB1157 assessed as reduction in bacterial count at 4 times MIC measured after 24 hrs by time kill assay; assay type: functional
Staphylococcus aureus [12] = experiment: Antibacterial activity against Staphylococcus aureus Mu50 at 1:1 ratio of compound and phosphatidylglycerol at […] incubated for 16 to 24 hrs by absorbance based assay; assay type: functional, organism-based; conditions: dose 128.0 µg/ml, time 16-24 hrs
Staphylococcus aureus [13] = experiment: Post-antibiotic effect in Staphylococcus aureus MRSA252 assessed as time of effect at 10 times; assay type: functional
Enterococcus faecium [14] = experiment: Antibacterial activity against Enterococcus faecium clinical isolate incubated for 16 to 24 hrs by CLSI based broth microdilution method; assay type: functional; conditions: time 16-24 hrs
Escherichia coli [15] = experiment: Bactericidal activity against Escherichia coli AB1157 assessed as reduction in bacterial count at MIC measured after 24 hrs by time kill assay; assay type: functional
Staphylococcus aureus [16] = experiment: Potency index, ratio of Vancomycin MIC to test compound MIC for vancomycin-intermediate Staphylococcus aureus incubated for 16 to 24 hrs by CLSI based broth microdilution method; assay type: functional; conditions: time 16-24 hrs
Staphylococcus aureus [17] = experiment: Post-antibiotic effect in Staphylococcus aureus MRSA252 assessed as time of effect at 20 times; assay type: functional
Staphylococcus aureus [18] = experiment: Bactericidal activity against methicillin-resistant Staphylococcus aureus MRSA252 assessed as reduction in bacterial count at 4 to 8 times MIC measured after 24 hrs by time kill assay; assay type: functional
Staphylococcus aureus [19] = experiment: Induction of membrane disruption in Staphylococcus aureus MRSA252 assessed as leakage of protoplasm content at 1 to 8 ug/ml incubated for 4 to 24 hrs by SEM analysis; assay type: functional, organism-based; conditions: dose 1-8 µg/ml, time 4-24 hrs
Enterococcus faecium [20] = experiment: Antibacterial activity against vancomycin-resistant Enterococcus faecium harboring VanA phenotype clinical isolate incubated for 16 to 24 hrs by CLSI based broth microdilution method; assay type: functional; conditions: time 16-24 hrs
[21] = MRT (infinity) in CD-1 mouse at 10 mg/kg, iv measured for 24 hrs by UPLC analysis; assay type: ADME, organism-based; conditions: in vivo
Staphylococcus aureus [22] = experiment: Post-antibiotic effect in Staphylococcus aureus MRSA252 assessed as decrease in bacterial titer at 20 times measured after 7 hrs; assay type: functional
[23] = AUC (infinity) in CD-1 mouse at 10 mg/kg, iv measured for 24 hrs by UPLC analysis; assay type: ADME, organism-based; conditions: in vivo
[24] = tested on: Staphylococcus haemolyticus; experiment: Antibacterial activity against methicillin-resistant Staphylococcus haemolyticus clinical isolate incubated for 16 to 24 hrs by CLSI based broth microdilution method; assay type: functional; conditions: time 16-24 hrs
Staphylococcus aureus [25] = experiment: Antibacterial activity against Staphylococcus aureus Mu50 assessed as fold decrease in MIC at 1:1 ratio of compound and Ac2KAA at […] incubated for 16 to 24 hrs by absorbance based assay relative to control; assay type: functional; conditions: dose 128 µg/ml; time 16-24 hrs
Enterococcus faecium [26] = experiment: Bacteriostatic activity against Enterococcus faecium SC-2022-D2-059 harboring VanA phenotype at 1 to 8 times MIC measured after 24 hrs by time kill assay; assay type: functional, organism-based
Escherichia coli [27] = experiment: Induction of cytoplasmic membrane permeabilization in Escherichia coli AB1157 at 16 ug/ml measured for 40 mins by PI/NPN staining based assay; assay type: functional, organism-based; conditions: dose 16.0 µg/ml
Staphylococcus aureus [28] = experiment: Antibacterial activity against methicillin-susceptible Staphylococcus aureus incubated for 16 to 24 hrs by CLSI based broth microdilution method; assay type: functional; conditions: time 16-24 hrs
Enterococcus faecium [29] = experiment: Antibacterial activity against vancomycin-resistant Enterococcus faecium harboring VanB phenotype incubated for 16 to 24 hrs by CLSI based broth microdilution method; assay type: functional; conditions: time 16-24 hrs
Staphylococcus hominis = experiment: Antibacterial activity against methicillin-resistant Staphylococcus hominis clinical isolate incubated for 16 to 24 hrs by CLSI based broth microdilution method; assay type: functional; conditions: time 16-24 hrs
Enterococcus faecium [30] = experiment: Antibacterial activity against vancomycin-resistant Enterococcus faecium harboring VanM phenotype incubated for 16 to 24 hrs by CLSI based broth microdilution method; assay type: functional; conditions: time 16-24 hrs
Peptidoglycan [31] = experiment: Binding affinity to Ac-Lys(D-isoAsp)-D-Ala-D-Ala lipid II model peptide moiety assessed as change in Gibb's free energy by ITC analysis
Staphylococcus aureus [32] = experiment: Induction of drug resistance in vancomycin-intermediate Staphylococcus aureus Mu50 assessed as change in MIC after 20 passages by broth microdilution method; assay type: functional, organism-based
Peptidoglycan [33] = experiment: Binding affinity to Ac-Lys(Gly5)-D-Ala-D-Ala lipid II model peptide moiety assessed as change in Gibb's free energy by ITC analysis
Staphylococcus aureus [34] = experiment: Induction of drug resistance in vancomycin-sensitive Staphylococcus aureus MRSA252 assessed as change in MIC measured after 16 days of serial passages by broth microdilution method; assay type: functional, organism-based; conditions: time 16.0 day
[35] = Half life in CD-1 mouse at 10 mg/kg, iv measured for 24 hrs by UPLC analysis; assay type: ADME, organism-based; conditions: in vivo
Staphylococcus aureus [36] = experiment: Bacteriostatic activity against methicillin-resistant Staphylococcus aureus MRSA252 at MIC measured after 24 hrs by time kill assay; assay type: functional, organism-based
Enterococcus faecium [37] = experiment: Potency index, ratio of Vancomycin MIC to test compound MIC for vancomycin-resistant Enterococcus faecium incubated for 16 to 24 hrs by CLSI based broth microdilution method; assay type: functional; conditions: time 16-24 hrs

CC(C)C[C@@H](N)C(=O)N[C@H]1C(=O)N[C@@H](CC(N)=O)C(=O)N[C@H]2C(=O)N[C@H]3C(=O)N[C@H](C(=O)N[C@H](C(=O)NCc4ccc(-c5ccc(CNC(=N)N)cc5)cc4)c4cc(O)cc(O)c4-c4cc3ccc4O)[C@H](O)c3ccc(c(Cl)c3)Oc3cc2cc(c3O[C@@H]2O[C@H](CO)[C@@H](O)[C@H](O)[C@H]2O[C@H]2C[C@](C)(N)[C@H](O)[C@H](C)O2)Oc2ccc(cc2Cl)[C@H]1O
Activity (Escherichia coli [1]): 3 log10CFU/ml | MIC (Staphylococcus aureus [2]): 1 µg/mL (≈ 0.598 µM) | Activity (Escherichia coli [3]): Dose-Dependent Effect | Ka (Peptidoglycan [4]): 1.32e+06 M⁻¹ | Ratio (Acinetobacter baumannii): 2 | Activity (Escherichia coli [5]): inactive | Ka (Peptidoglycan [6]): 687000 M⁻¹ | Activity (Staphylococcus aureus [7]): Active | Activity (Staphylococcus aureus [8]): Active | Activity (Escherichia coli [9]): Active | MIC (Klebsiella pneumoniae): > 128 µg/mL | MIC (Enterococcus faecalis): ≤ 0.03 µg/mL | Ratio (Escherichia coli [10]): 2 | Activity (Escherichia coli [11]): 2 log10CFU/ml | Activity (Staphylococcus aureus [12]): Active | Time (Staphylococcus aureus [13]): 6 h | MIC (Enterococcus faecium [14]): ≤ 0.03 µg/mL | Activity (Escherichia coli [15]): 1 log10CFU/ml | Ratio (Staphylococcus aureus [16]): 2 | Time (Staphylococcus aureus [17]): 23 h | Activity (Staphylococcus aureus [18]): ~1 log10CFU/ml | Activity (Staphylococcus aureus [19]): Active | MIC (Enterococcus faecium [20]): 2 µg/mL (≈ 1.2 µM) | MRT inf [21]: 20.2 h | Activity (Staphylococcus aureus [22]): 1.2 log10CFU/ml | AUC(0-inf) [23]: 40000 ng·h/mL | MIC [24]: ≤ 0.03 µg/mL | fold change (FC) (Staphylococcus aureus [25]): 2 | Activity (Enterococcus faecium [26]): Active | Activity (Escherichia coli [27]): Active | MIC (Staphylococcus aureus [28]): ≤ 0.063 µg/mL | MIC (Enterococcus faecium [29]): 2 µg/mL (≈ 1.2 µM) | MIC (Staphylococcus hominis): ≤ 0.03 µg/mL | MIC (Enterococcus faecium [30]): 4 µg/mL (≈ 2.39 µM) | deltaG (Peptidoglycan [31]): -7.96 kcal/mol | Activity (Staphylococcus aureus [32]): inactive | deltaG (Peptidoglycan [33]): -8.69 kcal/mol | Activity (Staphylococcus aureus [34]): inactive | half-life [35]: 13.4 h | Activity (Staphylococcus aureus [36]): Active | Ratio (Enterococcus faecium [37]): 2

— ChEMBL document CHEMBL6127119 (J Med Chem, 2024)
